Values after ≈ are worked out from the molar mass of the structure shown. Active and inactive are the calls of the source. The rule behind the calls is not given here.
Assays:
Vaccinia virus = experiment: Antiviral activity against Vaccinia virus Lederle vaccine infected in african green monkey Vero cells assessed as inhibition of virus-induced cytopathic effect by MTT assay; assay type: functional, organism-based; conditions: Orthopoxvirus vaccinia
[1] = system: Sandfly fever Sicilian virus; experiment: Antiviral activity against Sandfly fever sicilian virus infected in african green monkey Vero cells assessed as inhibition of virus-induced cytopathic effect by MTT assay; assay type: functional, organism-based; conditions: sandfly fever Sicilian virus, Vero; read-out: IC50
Mus musculus [2] = experiment: Toxicity in C57BL/6 mouse assessed as average day of death at 2 mg/kg/day, sc once daily for 7 days; assay type: organism-based; parameters: route subcutaneous; conditions: in vivo, 168 h
Punta Toro virus = experiment: Antiviral activity against Punta Toro virus Adames infected in african green monkey Vero cells assessed as inhibition of virus-induced cytopathic effect by MTT assay; assay type: functional, organism-based; conditions: Punta Toro virus, Adames, Vero; read-out: IC50
[3] = Therapeutic index, ratio of TC50 for african green monkey Vero cells to IC50 for Sandfly fever sicilian virus; assay type: cell-based; conditions: read-out: TI
[4] = system: Japanese encephalitis virus; experiment: Antiviral activity against Japanese encephalitis virus Beijing infected in low viral dose challenge C57BL/6 mouse model assessed as average day of death at 20 mg/kg/day, sc once daily for 7 days administered 1 day before infection measured after 28 days post infection; assay type: functional; conditions: route subcutaneous
Mus musculus [5] = experiment: Toxicity in C57BL/6 mouse assessed as mortality at 10 mg/kg/day, sc once daily for 7 days; assay type: organism-based; parameters: route subcutaneous; conditions: in vivo, 168 h
Yellow fever virus = experiment: Antiviral activity against Yellow fever virus Ashibi infected in african green monkey Vero cells assessed as inhibition of virus-induced cytopathic effect by MTT assay; assay type: functional, organism-based; conditions: Yellow fever virus, Ashibi, Vero; read-out: IC50
[6] = Therapeutic index, ratio of TC50 for african green monkey Vero cells to IC50 for Japanese encephalitis virus Nakayama; assay type: cell-based; conditions: read-out: TI
[7] = system: Japanese encephalitis virus; experiment: Antiviral activity against Japanese encephalitis virus Nakayama infected in african green monkey Vero cells assessed as inhibition of virus-induced cytopathic effect by MTT assay; assay type: functional, organism-based; conditions: Japanese encephalitis virus, Nakayama, Vero; read-out: IC50
[8] = Therapeutic index, ratio of TC50 for african green monkey Vero cells to IC50 for Dengue type 4 virus; assay type: cell-based; conditions: read-out: TI
[9] = system: Japanese encephalitis virus; experiment: Antiviral activity against Japanese encephalitis virus Beijing infected in low viral dose challenge C57BL/6 mouse model assessed as survival rate at 20 mg/kg/day, sc once daily for 7 days administered 1 day before infection measured after 28 days post infection relative to control; assay type: functional; conditions: route subcutaneous
Mus musculus [10] = experiment: Toxicity in C57BL/6 mouse assessed as mortality at 40 mg/kg/day, sc once daily for 7 days; assay type: organism-based; parameters: route subcutaneous; conditions: in vivo, 168 h
[11] = system: Japanese encephalitis virus; experiment: Antiviral activity against Japanese encephalitis virus Beijing infected in low viral dose challenge C57BL/6 mouse model assessed as survival rate at 40 mg/kg/day, sc once daily for 7 days administered 1 day before infection measured after 28 days post infection relative to control; assay type: functional; conditions: route subcutaneous
Mus musculus [12] = experiment: Toxicity in C57BL/6 mouse assessed as body weight loss at 40 mg/kg/day, sc once daily for 7 days; assay type: organism-based; parameters: route subcutaneous; conditions: in vivo, 168 h
[13] = Therapeutic index, ratio of TC50 for african green monkey Vero cells to IC50 for Rift valley fever virus; assay type: cell-based; conditions: read-out: TI
[14] = Therapeutic index, ratio of TC50 for african green monkey Vero cells to IC50 for Yellow fever virus Ashibi; assay type: cell-based; conditions: read-out: TI
[15] = system: Japanese encephalitis virus; experiment: Antiviral activity against Japanese encephalitis virus Beijing infected in low viral dose challenge C57BL/6 mouse model assessed as survival rate at 10 mg/kg/day, sc once daily for 7 days administered 1 day before infection measured after 28 days post infection relative to control; assay type: functional, organism-based
[16] = system: Human immunodeficiency virus 1; experiment: Antiviral activity against HIV1 by cells based assay; assay type: functional, organism-based
Rift Valley fever virus = experiment: Antiviral activity against Rift Valley fever virus infected in african green monkey Vero cells after 6 days by plaque reduction assay; assay type: functional, organism-based; conditions: Rift Valley fever virus, Vero, 144 h; read-out: IC50
[17] = system: Japanese encephalitis virus; experiment: Antiviral activity against Japanese encephalitis virus Beijing infected in low viral dose challenge C57BL/6 mouse model assessed as average day of death at 10 mg/kg/day, sc once daily for 7 days administered 1 day before infection measured after 28 days post infection; assay type: functional; conditions: route subcutaneous
Mus musculus [18] = experiment: Toxicity in C57BL/6 mouse assessed as mortality at 20 mg/kg/day, sc once daily for 7 days; assay type: organism-based; parameters: route subcutaneous; conditions: in vivo, 168 h
[19] = system: Venezuelan equine encephalitis virus; experiment: Antiviral activity against Venezuelan equine encephalitis virus Trinidad donkey infected in african green monkey Vero cells assessed as inhibition of virus-induced cytopathic effect by MTT assay; assay type: functional, organism-based
[20] = system: Japanese encephalitis virus; experiment: Antiviral activity against Japanese encephalitis virus Beijing infected in low viral dose challenge C57BL/6 mouse model assessed as average day of death at 40 mg/kg/day, sc once daily for 7 days administered 1 day before infection measured after 28 days post infection; assay type: functional; conditions: route subcutaneous
[21] = Therapeutic index, ratio of TC50 for african green monkey Vero cells to IC50 for Punta toro virus Adames; assay type: cell-based; conditions: read-out: TI
dengue virus type 4 = experiment: Antiviral activity against Dengue virus type 4 infected in african green monkey Vero cells after 6 days by plaque reduction assay; assay type: functional, organism-based; conditions: Dengue virus, Vero, 144 h; read-out: IC50

## O=C1N[C@H]2[C@H](O)[C@H](O)[C@@H](O)[C@H](O)[C@@H]2c2cc3c(cc21)OCO3
Vaccinia virus
  Activity: inactive
[1]
  IC50: 1.7 µg/mL (≈ 5.5 µM)
Mus musculus [2]
  Activity: 28 days
Punta Toro virus
  IC50: 0.66 µg/mL (≈ 2.13 µM)
[3]
  selectivity ratio: 2.7
[4]
  Activity: 15 days
Mus musculus [5]
  Activity: Non-toxic
Yellow fever virus
  IC50: 0.4 µg/mL (≈ 1.29 µM)
[6]
  selectivity ratio: 5.9
[7]
  IC50: 0.48 µg/mL (≈ 1.55 µM)
[8]
  selectivity ratio: 3.7
[9]
  Activity: 60%
Mus musculus [10]
  Activity: Non-toxic
[11]
  Activity: 80%
Mus musculus [12]
  Activity: Toxic
[13]
  selectivity ratio: 4.3
[14]
  selectivity ratio: 6.6
[15]
  Activity: inactive
[16]
  Activity: inactive
Rift Valley fever virus
  IC50: 5.1 µg/mL (≈ 16.5 µM)
[17]
  Activity: 13.6 days
Mus musculus [18]
  Activity: Non-toxic
[19]
  Activity: inactive
[20]
  Activity: 9.5 days
[21]
  selectivity ratio: 4.3
Dengue virus type 4
  IC50: 0.67 µg/mL (≈ 2.17 µM)
